According to patent US20120077836A1, “METHODS OF ADMINISTERING (4AR,10AR)-1-N-PROPYL-1,2,3,4,4A,5,10,10A-OCTAHYDROBENZO [G] QUINOLINE-6,7-DIOL AND RELATED COMPOUNDS ACROSS THE ORAL MUCOSA, THE NASAL MUCOSA OR THE SKIN AND PHARMACEUTICAL COMPOSITIONS THEREOF” (priority 2009, published 2012):
Counter-ions that a name gives are not always drawn.

How the values were obtained:
[1] = test system: rats with unilateral 6-OHDA lesions; assay: Dyskinesia model with naive 6-OHDA rats (AIMS)
[2] = test system: MPTP treated marmosets; assay: Anti-parkinsonian effects in MPTP-treated common marmosets; format: in vivo, common marmoset; parameters: disability score (120 min) / disability score (180 min) / disability score (240 min) / disability score (300 min) / disability score (360 min) / disability score (420 min) / disability score (60 min): scale not given here
Protocol: The experiments were conducted using 6 MPTP treated marmosets (2.0 mg/kg daily for up to 5 consecutive days dissolved in sterile 0.9% saline solution). All the animals had previously been treated with L-DOPA (12.5 mg/kg p.o., plus carbidopa 12.5 mg/kg p.o.) administered daily for up to 30 days in order to induce dyskinesia. […] Domperidone was administered 60 min before any of the test compounds. Domperidone is an antidopaminergic drug that suppresses nausea and vomiting. Locomotor activity was assessed using test cages that are comprised of 8 photo-electric switches comprised of 8 infra-red beams which are strategically placed in the cage and interruption of a beam is recorded as one count. […] The assessment of motor disability was performed by a trained observer blinded to the treatment.
The dose chosen for this challenge is at the top of the dose response curve for this drug.

## CCCN1CCC[C@@H]2Cc3c(ccc(O)c3O)C[C@H]21 [compound 10, (4aR,10aR)-1-n-Propyl-1,2,3,4,4a,5,10,10a-octahydro-benzo[g]quinoline-6,7-diol hydrobromide]
[1]; group 1: compound 10 0.0013 mg/kg SC days 1-14, then compound 10 0.0013 mg/kg SC days 15-19
  mean AIM score (day 19): 25
[1]; group 2: L-DOPA/Benserazide 6/15 mg/kg SC days 1-14, then compound 10 0.0013 mg/kg SC days 15-19
  mean AIM score (day 19): 18
[1]; group 3: apomorphine 1 mg/kg SC days 1-14, then compound 10 0.0013 mg/kg SC days 15-19
  mean AIM score (day 19): 39
[1]; once daily SC, scored days 1-12
  dyskinesia score (AIMS): about 30
[2]; 0.001 mg/kg SC
  disability score (60 min): 14.3
  disability score (120 min): 2.3
  disability score (180 min): 2.5
  disability score (240 min): 3.0
  disability score (300 min): 2.5
  disability score (360 min): 6.5
  disability score (420 min): 8.5
[2]; 0.01 mg/kg SC
  disability score (60 min): 10.0
  disability score (120 min): 2.2
  disability score (180 min): 2.0
  disability score (240 min): 2.2
  disability score (300 min): 2.7
  disability score (360 min): 2.3
  disability score (420 min): 2.7
[2]; L-DOPA 12.5 mg/kg p.o., compound 10 0.001 or 0.01 mg/kg SC
  effect on locomotor activity and motor disability: dose-related increase in locomotor activity and reversal of motor disability
